Laboratory results as given in ChEMBL document CHEMBL1158926, “Norsesterterpenes from the North Adriatic Sponge Ircinia oros” (J Nat Prod, 1990).
In brackets after ≈: the same amount, converted by molar mass.

Test: Toxicity against Artemia salina
Type: organism-based
Conditions: in vivo, read-out: LD50 (the source's name)
`C/C(=C\CCc1coc(Cc2ccoc2)c1)CCCC(C)CC(=O)C(O)C(C)Cl` (centres undefined) gave an LC50 of 8.2 µg/mL (≈ 19.5 µM).
`C/C(=C/CCC(C)CC(=O)C(O)C(C)Cl)CCCc1coc(Cc2ccoc2)c1` (centres undefined) showed an LC50 of 8.6 µg/mL (≈ 20.4 µM).
`CC1=C(O)/C(=C/[C@H](C)CCC/C(C)=C/CCc2coc(Cc3ccoc3)c2)OC1=O` [IRCININ 1] showed an LC50 of 2.4 µg/mL (≈ 5.85 µM).
In the case of `CC1=C(O)/C(=C/[C@H](C)CC/C=C(/C)CCCc2coc(Cc3ccoc3)c2)OC1=O` [IRCININ 2], the LC50 is reported as 2.7 µg/mL (≈ 6.58 µM).
